# Data from US20090092642A1, “Skin and/or Hair Products, Containing Compounds With an Isoprenoid Structure” (BEIERSDORF AG, priority 2004, published 2009).
# Test system: primary normal human melanocytes
# Assay: Melanogenesis assay (14C-tyrosine incorporation) after 3 days of incubation with test substance
# Type: cell-based
# Conditions: 3 days incubation
# Protocol: A melanogenesis assay was carried out after 3 days of incubation of primary normal human melanocytes with test substance compared to control. The figures listed in the table give the melanogenesis rates (measured as ^14C-tyrosine incorporation) based on the untreated control (=100%). It results from this that the melanogenesis, i.e., the process of melanine synthesis rises to 217%, 128% or 121%, when the melanocytes are cultivated in the presence of the (2E/Z,6E/Z)-3,7,11-trimethyldodeca-2,6,10-trienal (n=3).
# A melanogenesis assay was carried out after 3 days of incubation of primary normal human melanocytes with test substance compared to control. The figures listed in the table give the melanogenesis rates (measured as ^14C-tyrosine incorporation) based on the untreated control (=100%). It results from this that the melanogenesis, i.e., the process of melanine synthesis rises to 135% or 113% when the melanocytes are cultivated in the presence of the N-[(1E/Z,2E/Z)-3,7-dimethylocta-2,6-dien-1-ylidene]butane-1-amine (n=2).
# A melanogenesis assay was carried out after 3 days of incubation of primary normal human melanocytes with test substance compared to control. The figures listed in the table give the melanogenesis rates (measured as ^14C-tyrosine incorporation) based on the untreated control (=100%). It results from this that the melanogenesis, i.e., the process of melanine synthesis rises to 137% or 127% when the melanocytes are cultivated in the presence of the (2E/Z)-3,7-dimethylocta-2,6-dienal (n=2-6).
# A melanogenesis assay was carried out after 3 days of incubation of primary normal human melanocytes with test substance compared to control. The figures listed in the table give the melanogenesis rates (measured as ^14C-tyrosine incorporation) based on the untreated control (=100%). It results from this that the melanogenesis, i.e., the process of melanine synthesis rises to 131%, 130% or 117% when the melanocytes are cultivated in the presence of the (1E/Z,2E/Z)-3,7-dimethylocta-2,6-dienal oxime (n=2).
compound,measurement,setting,value
"CCCC/N=C/C=C(\C)CCC=C(C)C [N-[(1E/Z,2E/Z)-3,7-dimethylocta-2,6-dien-1-ylidene]butane-1-amine]","melanogenesis rate (measured as 14C-tyrosine incorporation) based on the untreated control (=100%), X transverse","0.1 μg/ml, n=2",113%
same,"melanogenesis rate (measured as 14C-tyrosine incorporation) based on the untreated control (=100%), X transverse","1 μg/ml, n=2",135%
"CC(C)=CCC/C(C)=C/C=N/O [(1E/Z,2E/Z)-3,7-dimethylocta-2,6-dienal oxime]","melanogenesis rate (measured as 14C-tyrosine incorporation) based on the untreated control (=100%), X transverse","0.01 μg/ml, n=2",117%
same,"melanogenesis rate (measured as 14C-tyrosine incorporation) based on the untreated control (=100%), X transverse","0.1 μg/ml, n=2",130%
same,"melanogenesis rate (measured as 14C-tyrosine incorporation) based on the untreated control (=100%), X transverse","1 μg/ml, n=2",131%
"CC(C)=CCC/C(C)=C/C=O [(2E/Z)-3,7-dimethylocta-2,6-dienal]","melanogenesis rate (measured as 14C-tyrosine incorporation) based on the untreated control (=100%), X transverse","0.001 μg/ml, n=2-6",127%
same,"melanogenesis rate (measured as 14C-tyrosine incorporation) based on the untreated control (=100%), X transverse","0.01 μg/ml, n=2-6",137%
"CC(C)=CCC/C(C)=C/CC/C(C)=C/C=O [(2E/Z,6E/Z)-3,7,11-trimethyldodeca-2,6,10-trienal]","melanogenesis rate (measured as 14C-tyrosine incorporation) based on the untreated control (=100%), X transverse","0.1 μg/ml (first column so headed), n=3",128%
same,"melanogenesis rate (measured as 14C-tyrosine incorporation) based on the untreated control (=100%), X transverse","0.1 μg/ml (second column so headed), n=3",121%
same,"melanogenesis rate (measured as 14C-tyrosine incorporation) based on the untreated control (=100%), X transverse","1 μg/ml, n=3",217%
